# Paper PMC9386018, “A lymphatic-absorbed multi-targeted kinase inhibitor for myelofibrosis therapy” (Nature Communications, 2022)
# “And” between values parts separate entries of the source, which are not always exact repeats. Equal entries are not always repeated.
# Experiment: Pharmacokinetic analysis of plasma after intravenous and oral dosing
# Details: for concentration at 0.167 h / concentration at 0.5 h / concentration at 1 h / concentration at 2 h / concentration at 4 h / concentration at 7 h / concentration at 16 h: female, CD-1, mouse, plasma
compound,measurement,setting,value
"O=C(O)c1ccc(F)c(F)c1Nc1ccc(I)cc1F [PD315209, reference compound]",Concentration,"Supplementary Figure 6a, i.v., Time 0.167 h, individual replicates",0.779 µg/mL and 0.846 µg/mL
same,Concentration,"Supplementary Figure 6a, i.v., Time 0.5 h, individual replicates",0.677 µg/mL and 0.624 µg/mL
same,Concentration,"Supplementary Figure 6a, i.v., Time 1 h, individual replicates",0.44 µg/mL and 0.492 µg/mL
same,Concentration,"Supplementary Figure 6a, i.v., Time 2 h, individual replicates",0.49 µg/mL and 0.355 µg/mL
same,Concentration,"Supplementary Figure 6a, i.v., Time 4 h, individual replicates",0.243 µg/mL and 0.164 µg/mL
same,Concentration,"Supplementary Figure 6a, i.v., Time 7 h, individual replicates",0.0727 µg/mL and 0.0578 µg/mL
same,Concentration,"Supplementary Figure 6a, i.v., Time 16 h, individual replicates",0.00408 µg/mL
same,Concentration,"Supplementary Figure 6a, i.v., Time 24 h, individual replicates",0.00508 µg/mL and 0.00182 µg/mL and 0.00298 µg/mL
same,Concentration,"Supplementary Figure 6a, p.o., Time 0.167 h, individual replicates",0.507 µg/mL and 0.993 µg/mL and 0.283 µg/mL
same,Concentration,"Supplementary Figure 6a, p.o., Time 0.5 h, individual replicates",0.891 µg/mL and 0.764 µg/mL
same,Concentration,"Supplementary Figure 6a, p.o., Time 1 h, individual replicates",1.54 µg/mL and 1.24 µg/mL
same,Concentration,"Supplementary Figure 6a, p.o., Time 2 h, individual replicates",0.49 µg/mL and 0.399 µg/mL
same,Concentration,"Supplementary Figure 6a, p.o., Time 4 h, individual replicates",0.412 µg/mL and 0.334 µg/mL
same,Concentration,"Supplementary Figure 6a, p.o., Time 7 h, individual replicates",0.463 µg/mL and 0.555 µg/mL
same,Concentration,"Supplementary Figure 6a, p.o., Time 16 h, individual replicates",0.362 µg/mL and 0.491 µg/mL
same,Concentration,"Supplementary Figure 6a, p.o., Time 24 h, individual replicates",0.443 µg/mL and 0.223 µg/mL and 0.212 µg/mL
same,concentration at 0.167 h,"iv, 15 mg kg^−1, Concentration, Supplementary Figure 6a, Time 0.167 h, individual replicates",0.934 µg/mL
same,concentration at 0.5 h,"iv, 15 mg kg^−1, Concentration, Supplementary Figure 6a, Time 0.5 h, individual replicates",0.923 µg/mL
same,concentration at 1 h,"iv, 15 mg kg^−1, Concentration, Supplementary Figure 6a, Time 1 h, individual replicates",0.602 µg/mL
same,concentration at 2 h,"iv, 15 mg kg^−1, Concentration, Supplementary Figure 6a, Time 2 h, individual replicates",0.572 µg/mL
same,concentration at 4 h,"iv, 15 mg kg^−1, Concentration, Supplementary Figure 6a, Time 4 h, individual replicates",0.282 µg/mL
same,concentration at 7 h,"iv, 15 mg kg^−1, Concentration, Supplementary Figure 6a, Time 7 h, individual replicates",0.0992 µg/mL
same,concentration at 16 h,"iv, 15 mg kg^−1, Concentration, Supplementary Figure 6a, Time 16 h, individual replicates",0.00787 µg/mL
same,concentration at 0.167 h,"iv, 15 mg kg^−1, Concentration, Time 0.167 h, individual animals, Supplementary Figure 12a",0.306 µg/mL
same,concentration at 0.167 h,"iv, 15 mg kg^−1, Concentration, Time 0.167 h, individual animals, Supplementary Figure 12b",0.641 µg/mL
same,concentration at 0.5 h,"iv, 15 mg kg^−1, Concentration, Time 0.5 h, individual animals, Supplementary Figure 12a",0.175 µg/mL
same,concentration at 0.5 h,"iv, 15 mg kg^−1, Concentration, Time 0.5 h, individual animals, Supplementary Figure 12b",0.938 µg/mL
same,concentration at 1 h,"iv, 15 mg kg^−1, Concentration, Time 1 h, individual animals, Supplementary Figure 12a",0.146 µg/mL
same,concentration at 1 h,"iv, 15 mg kg^−1, Concentration, Time 1 h, individual animals, Supplementary Figure 12b",0.783 µg/mL
same,concentration at 2 h,"iv, 15 mg kg^−1, Concentration, Time 2 h, individual animals, Supplementary Figure 12a",0.0868 µg/mL
same,concentration at 2 h,"iv, 15 mg kg^−1, Concentration, Time 2 h, individual animals, Supplementary Figure 12b",0.51 µg/mL
same,concentration at 4 h,"iv, 15 mg kg^−1, Concentration, Time 4 h, individual animals, Supplementary Figure 12b",0.322 µg/mL
same,concentration at 7 h,"iv, 15 mg kg^−1, Concentration, Time 7 h, individual animals, Supplementary Figure 12a",0.0228 µg/mL
same,concentration at 0.167 h,"po, 200 mg kg^−1, Concentration, Time 0.167 h, individual animals, Supplementary Figure 12a",0.155 µg/mL
same,concentration at 0.5 h,"po, 200 mg kg^−1, Concentration, Time 0.5 h, individual animals, Supplementary Figure 12a",0.968 µg/mL
same,concentration at 0.5 h,"po, 200 mg kg^−1, Concentration, Time 0.5 h, individual animals, Supplementary Figure 12b",0.692 µg/mL
same,concentration at 1 h,"po, 200 mg kg^−1, Concentration, Time 1 h, individual animals, Supplementary Figure 12b",0.841 µg/mL
same,concentration at 2 h,"po, 200 mg kg^−1, Concentration, Time 2 h, individual animals, Supplementary Figure 12a",2.5 µg/mL
same,concentration at 4 h,"po, 200 mg kg^−1, Concentration, Time 4 h, individual animals, Supplementary Figure 12a",3.42 µg/mL
same,concentration at 7 h,"po, 200 mg kg^−1, Concentration, Time 7 h, individual animals, Supplementary Figure 12a",1.87 µg/mL
same,concentration at 7 h,"po, 200 mg kg^−1, Concentration, Time 7 h, individual animals, Supplementary Figure 12b",1.07 µg/mL
same,concentration at 16 h,"po, 200 mg kg^−1, Concentration, Time 16 h, individual animals, Supplementary Figure 12b",2.41 µg/mL
same,concentration at 0.5 h,"po, 400 mg kg^−1, Concentration, Supplementary Figure 6a, Time 0.5 h, individual replicates",0.644 µg/mL
same,concentration at 1 h,"po, 400 mg kg^−1, Concentration, Supplementary Figure 6a, Time 1 h, individual replicates",1.7 µg/mL
same,concentration at 2 h,"po, 400 mg kg^−1, Concentration, Supplementary Figure 6a, Time 2 h, individual replicates",0.787 µg/mL
same,concentration at 4 h,"po, 400 mg kg^−1, Concentration, Supplementary Figure 6a, Time 4 h, individual replicates",0.398 µg/mL
same,concentration at 7 h,"po, 400 mg kg^−1, Concentration, Supplementary Figure 6a, Time 7 h, individual replicates",0.473 µg/mL
same,concentration at 16 h,"po, 400 mg kg^−1, Concentration, Supplementary Figure 6a, Time 16 h, individual replicates",0.572 µg/mL
same,Concentration,"i.v., Time 0.167 h, individual animals, Supplementary Figure 12a",0.324 µg/mL and 0.426 µg/mL
same,Concentration,"i.v., Time 0.5 h, individual animals, Supplementary Figure 12a",0.148 µg/mL and 0.18 µg/mL
same,Concentration,"i.v., Time 1 h, individual animals, Supplementary Figure 12a",0.1688 µg/mL and 0.1878 µg/mL
same,Concentration,"i.v., Time 1 h, individual animals, Supplementary Figure 12b",1.48 µg/mL and 1.11 µg/mL
same,Concentration,"i.v., Time 2 h, individual animals, Supplementary Figure 12a",0.05 µg/mL and 0.064 µg/mL
same,Concentration,"i.v., Time 2 h, individual animals, Supplementary Figure 12b",0.498 µg/mL and 0.604 µg/mL
same,Concentration,"i.v., Time 4 h, individual animals, Supplementary Figure 12a",0.0458 µg/mL and 0.021 µg/mL and 0.026 µg/mL
same,Concentration,"i.v., Time 4 h, individual animals, Supplementary Figure 12b",0.244 µg/mL and 0.464 µg/mL
same,Concentration,"i.v., Time 7 h, individual animals, Supplementary Figure 12a",0.01278 µg/mL
same,Concentration,"i.v., Time 7 h, individual animals, Supplementary Figure 12b",0.206 µg/mL and 0.134 µg/mL and 0.272 µg/mL
same,Concentration,"i.v., Time 16 h, individual animals, Supplementary Figure 12b",0.0259 µg/mL and 0.0669 µg/mL and 0.0612 µg/mL
same,Concentration,"i.v., Time 24 h, individual animals, Supplementary Figure 12b",0.00626 µg/mL and 0.0326 µg/mL and 0.025 µg/mL
same,Concentration,"p.o., Time 0.167 h, individual animals, Supplementary Figure 12a",0.1458 µg/mL and 0.1076 µg/mL and 0.206 µg/mL and 0.1326 µg/mL and 0.193 µg/mL
same,Concentration,"p.o., Time 0.167 h, individual animals, Supplementary Figure 12b",0.181 µg/mL
same,Concentration,"p.o., Time 0.5 h, individual animals, Supplementary Figure 12a",0.788 µg/mL and 0.6 µg/mL
same,Concentration,"p.o., Time 1 h, individual animals, Supplementary Figure 12a",1.006 µg/mL and 0.784 µg/mL and 0.26 µg/mL and 1.464 µg/mL and 1.172 µg/mL and 1.344 µg/mL
same,Concentration,"p.o., Time 2 h, individual animals, Supplementary Figure 12a",2.1 µg/mL and 1.302 µg/mL
same,Concentration,"p.o., Time 4 h, individual animals, Supplementary Figure 12a",2.98 µg/mL and 1.762 µg/mL
same,Concentration,"p.o., Time 7 h, individual animals, Supplementary Figure 12a",1.768 µg/mL and 1.234 µg/mL
same,Concentration,"p.o., Time 16 h, individual animals, Supplementary Figure 12a",0.414 µg/mL and 0.996 µg/mL and 1.288 µg/mL
same,Concentration,"p.o., Time 24 h, individual animals, Supplementary Figure 12a",0.996 µg/mL and 0.508 µg/mL and 0.28 µg/mL
